In ChEMBL document CHEMBL1909046, “DrugMatrix in vitro pharmacology data” one finds IC50 and Ki data, which are given here for nine molecules.

The target of assay [1] is T1, B2 bradykinin receptor (Homo sapiens, UniProt P30411). Also: in other assays of this panel Not Active means under 50% inhibition at 10 µM.
T1 sequence (P30411 whole entry): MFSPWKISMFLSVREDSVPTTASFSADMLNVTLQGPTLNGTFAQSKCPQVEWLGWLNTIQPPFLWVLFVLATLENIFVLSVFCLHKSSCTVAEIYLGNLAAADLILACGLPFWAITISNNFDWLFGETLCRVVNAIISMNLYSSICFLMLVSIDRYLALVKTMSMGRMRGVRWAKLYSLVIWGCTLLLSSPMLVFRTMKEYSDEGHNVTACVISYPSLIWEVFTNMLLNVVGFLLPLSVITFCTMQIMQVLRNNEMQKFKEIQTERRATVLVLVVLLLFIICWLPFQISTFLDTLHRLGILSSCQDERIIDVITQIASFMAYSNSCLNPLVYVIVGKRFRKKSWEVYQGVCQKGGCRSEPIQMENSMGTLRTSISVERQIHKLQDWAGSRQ
It counts as cell membranes, Membrane. Particulars: chem-1.

The nature of assay [2]: DRUGMATRIX: Glutamate, NMDA, Phencyclidine radioligand binding (ligand: [3H] TCP). It counts as cell membranes, Rattus norvegicus, Wistar, Cerebral cortex, Membrane. The settings on record: Not Active = under 50% inhibition at 10 µM.
Assay [3] is described as follows: DRUGMATRIX: beta-Lactamase enzyme inhibition (substrate: Nitrocefin). More on the design: species or system Bacillus cereus. Particulars: Not Active = under 50% inhibition at 10 µM.
Assay [4] concerns the target T2, Neuropeptide Y receptor type 2 (Homo sapiens, UniProt P49146). Also: in other assays of this panel Not Active means under 50% inhibition at 10 µM.
T2 sequence (P49146 whole entry): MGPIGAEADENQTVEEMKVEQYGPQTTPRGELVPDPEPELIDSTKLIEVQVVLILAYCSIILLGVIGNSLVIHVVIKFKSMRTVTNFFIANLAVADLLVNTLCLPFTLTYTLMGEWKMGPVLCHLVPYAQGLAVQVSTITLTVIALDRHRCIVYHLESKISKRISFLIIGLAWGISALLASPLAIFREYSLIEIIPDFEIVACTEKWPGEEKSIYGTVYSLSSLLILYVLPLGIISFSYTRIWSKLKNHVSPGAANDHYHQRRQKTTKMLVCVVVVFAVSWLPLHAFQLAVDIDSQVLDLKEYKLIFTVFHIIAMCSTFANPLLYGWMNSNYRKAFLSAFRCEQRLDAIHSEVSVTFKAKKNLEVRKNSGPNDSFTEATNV
It counts as cell membranes, Membrane. The settings on record: kan-ts.

Assay [5] can be described thus: DRUGMATRIX: Glutamate, Kainate radioligand binding (ligand: [3H] Kainic acid). The assay is classed as cell membranes, Rattus norvegicus, Wistar, Brain, Membrane. Particulars: Not Active = under 50% inhibition at 10 µM.
The nature of assay [6]: DRUGMATRIX: Imidazoline I2, Central radioligand binding (ligand: [3H] Idazoxan). It counts as cell membranes, Rattus norvegicus, Wistar, Cerebral cortex, Membrane. Particulars: Not Active = under 50% inhibition at 10 µM.
Assay [7] deals with T3, Neuropeptide Y receptor type 1 (Homo sapiens, UniProt P25929).
T3 sequence (P25929 whole entry): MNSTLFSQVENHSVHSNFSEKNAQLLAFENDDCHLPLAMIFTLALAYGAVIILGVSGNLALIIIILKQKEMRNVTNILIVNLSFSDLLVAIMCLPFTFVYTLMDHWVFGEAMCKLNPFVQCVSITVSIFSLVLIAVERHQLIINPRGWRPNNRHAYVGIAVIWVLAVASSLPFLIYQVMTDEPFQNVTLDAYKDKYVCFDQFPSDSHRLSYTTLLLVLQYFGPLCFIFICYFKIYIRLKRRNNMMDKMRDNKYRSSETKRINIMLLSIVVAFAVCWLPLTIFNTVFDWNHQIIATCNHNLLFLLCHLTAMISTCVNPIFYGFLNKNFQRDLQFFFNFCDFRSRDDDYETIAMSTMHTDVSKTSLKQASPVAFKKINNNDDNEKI
The assay is classed as cell membranes, Membrane. The settings on record: sk-n-mc.

For assay [8], the target named is T4, Angiotensin-converting enzyme (Oryctolagus cuniculus, UniProt P12822).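 Also: enzymatic inhibition of angiotensin-converting enzyme measured with FAPGG as the substrate; in other assays of this panel Not Active means under 50% inhibition at 10 µM.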
T4 sequence (P12822 whole entry): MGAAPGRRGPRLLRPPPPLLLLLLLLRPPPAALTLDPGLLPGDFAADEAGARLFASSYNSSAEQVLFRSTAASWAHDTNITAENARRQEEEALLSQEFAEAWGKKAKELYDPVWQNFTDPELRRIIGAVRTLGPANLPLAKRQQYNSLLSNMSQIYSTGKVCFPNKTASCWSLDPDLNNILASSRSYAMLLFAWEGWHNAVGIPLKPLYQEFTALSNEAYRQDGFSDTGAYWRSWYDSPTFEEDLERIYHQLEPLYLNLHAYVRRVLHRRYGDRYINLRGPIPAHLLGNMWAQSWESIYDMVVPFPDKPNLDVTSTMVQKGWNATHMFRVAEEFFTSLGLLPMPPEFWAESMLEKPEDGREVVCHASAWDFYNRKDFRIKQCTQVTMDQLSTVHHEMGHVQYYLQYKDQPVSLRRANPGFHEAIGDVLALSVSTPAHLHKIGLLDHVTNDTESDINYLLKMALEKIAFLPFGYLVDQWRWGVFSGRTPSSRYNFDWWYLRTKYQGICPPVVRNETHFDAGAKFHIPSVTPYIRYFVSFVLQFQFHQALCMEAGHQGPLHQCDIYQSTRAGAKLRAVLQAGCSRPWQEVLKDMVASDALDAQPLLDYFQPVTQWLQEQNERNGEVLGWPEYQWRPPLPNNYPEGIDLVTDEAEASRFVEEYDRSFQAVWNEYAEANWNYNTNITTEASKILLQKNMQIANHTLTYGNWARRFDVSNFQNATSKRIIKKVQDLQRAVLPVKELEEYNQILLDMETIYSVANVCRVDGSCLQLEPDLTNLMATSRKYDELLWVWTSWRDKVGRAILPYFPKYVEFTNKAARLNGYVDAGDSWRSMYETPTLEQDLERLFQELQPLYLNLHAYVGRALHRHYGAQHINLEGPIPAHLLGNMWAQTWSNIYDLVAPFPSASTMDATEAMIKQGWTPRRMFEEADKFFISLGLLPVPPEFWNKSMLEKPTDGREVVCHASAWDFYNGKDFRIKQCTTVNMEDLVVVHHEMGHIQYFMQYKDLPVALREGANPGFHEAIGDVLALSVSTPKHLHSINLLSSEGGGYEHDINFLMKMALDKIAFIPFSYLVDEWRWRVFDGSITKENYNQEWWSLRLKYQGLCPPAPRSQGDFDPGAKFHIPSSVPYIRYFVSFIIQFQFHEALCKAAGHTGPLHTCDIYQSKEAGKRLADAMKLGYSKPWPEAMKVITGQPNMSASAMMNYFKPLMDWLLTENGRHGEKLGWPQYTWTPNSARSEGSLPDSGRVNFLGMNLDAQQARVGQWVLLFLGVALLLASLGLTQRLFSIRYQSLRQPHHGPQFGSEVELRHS
Description: biochemical. The assay is classed as tissue-based, Lung.

Consider `OC[C@H]1OC2C3[C@@H](CO)OC(O[C@H]4[C@H](O)[C@@H](O)[C@@H](O[C@H]5[C@H](O)[C@@H](O)[C@@H](O[C@H]6[C@H](O)[C@@H](O)[C@@H](O[C@H]7[C@H](O)[C@@H](O)[C@@H](O[C@H]8[C@H](O)[C@@H](O)[C@@H](O[C@H]9[C@H](O)[C@@H](O)C(OC1[C@H](O)[C@H]2O)O[C@@H]9CO)O[C@@H]8CO)O[C@@H]7CO)O[C@@H]6CO)O[C@@H]5CO)O[C@@H]4CO)[C@H](O)[C@H]3O`, for which the IC50 result in assay [1], in assay [2], in assay [3], in assay [4], in assay [5] and in assay [6] was “Not Active” in each case. Moreover, the IC50 result in assay [7] and in assay [8] was “Not Active” each time. Also, the Ki result in assay [2], in assay [3], in assay [5] and in assay [6] was “Not Active” in each case.
As to `Nc1ccc(C(=O)O)c(O)c1` [AMINOSALICYLIC ACID], the 50% inhibitory concentration (IC50) entry in assay [1], in assay [2], in assay [3], in assay [4], in assay [5] and in assay [6] was “Not Active” in each case. In addition, the IC50 result in assay [7] and in assay [8] was “Not Active” in each case. The Ki result in assay [2], in assay [3], in assay [5] and in assay [6] was “Not Active” throughout.
With `O=c1[nH]cnc2c1ncn2[C@H]1CC[C@@H](CO)O1` [DIDANOSINE], the half-maximal inhibitory concentration (IC50) result in assay [1], in assay [2], in assay [3], in assay [4], in assay [5] and in assay [6] was “Not Active” throughout. Also, the IC50 entry in assay [7] and in assay [8] was “Not Active” throughout. The Ki result in assay [2], in assay [3], in assay [5] and in assay [6] was “Not Active” each time.
Consider `CCCCCCNC(=O)n1cc(F)c(=O)[nH]c1=O` [CARMOFUR], for which the IC50 result in assay [1], in assay [2], in assay [3], in assay [4], in assay [5] and in assay [6] was “Not Active” in each case. Further, the IC50 result in assay [7] and in assay [8] was “Not Active” throughout. In addition, the Ki entry in assay [2], in assay [3], in assay [5] and in assay [6] was “Not Active” throughout.
As for `C#C[C@]1(O)CC[C@H]2[C@@H]3CCC4=CC(=O)CC[C@@H]4[C@H]3CC[C@@]21C` [NORETHINDRONE], the IC50 result in assay [1], in assay [2], in assay [3], in assay [4], in assay [5] and in assay [6] was “Not Active” each time. Also, the IC50 entry in assay [7] and in assay [8] was “Not Active” throughout. Also, the Ki result in assay [2], in assay [3], in assay [5] and in assay [6] was “Not Active” throughout.
For `Cl.NC[C@H]1CC[C@H](C(=O)Oc2ccc(CCC(=O)O)cc2)CC1` [CETRAXATE HYDROCHLORIDE], the half-maximal inhibitory concentration (IC50) entry in assay [1], in assay [2], in assay [3], in assay [4], in assay [5] and in assay [6] was “Not Active” throughout. Moreover, the IC50 entry in assay [7] and in assay [8] was “Not Active” each time. Moreover, the Ki entry in assay [2], in assay [3], in assay [5] and in assay [6] was “Not Active” each time.
For the molecule `CC(C)Cn1cnc2c(N)nc3ccccc3c21` [IMIQUIMOD], the IC50 entry in assay [1], in assay [2], in assay [3], in assay [4], in assay [5] and in assay [6] was “Not Active” in each case. For the same molecule, the IC50 entry in assay [7] and in assay [8] was “Not Active” in each case. Moreover, the Ki result in assay [2], in assay [3], in assay [5] and in assay [6] was “Not Active” each time.
In the case of `O=C1CN(/N=C/c2ccc([N+](=O)[O-])o2)C(=O)N1` [NITROFURANTOIN], the IC50 result in assay [1], in assay [2], in assay [3], in assay [4], in assay [5] and in assay [6] was “Not Active” in each case. Moreover, the IC50 entry in assay [7] and in assay [8] was “Not Active” each time. Moreover, the Ki entry in assay [2], in assay [3], in assay [5] and in assay [6] was “Not Active” each time.
Consider `Cc1c(N)nc([C@H](CC(N)=O)NC[C@H](N)C(N)=O)nc1C(=O)N[C@H](C(=O)N[C@H](C)[C@@H](O)[C@H](C)C(=O)N[C@H](C(=O)NCCc1nc(-c2nc(C(=O)NCCC[S+](C)C)cs2)cs1)[C@@H](C)O)[C@@H](O[C@@H]1O[C@@H](CO)[C@@H](O)[C@H](O)[C@@H]1O[C@H]1O[C@H](CO)[C@@H](O)[C@H](OC(N)=O)[C@@H]1O)c1c[nH]cn1.[Br-]` [BLEOMYCIN A2], for which the IC50 result in assay [1], in assay [2], in assay [3], in assay [4], in assay [5] and in assay [6] was “Not Active” each time. The results for the IC50 entry in assay [7] and in assay [8] (read-out: IC50) were “Not Active” and 588 nM, respectively. Also, the Ki result in assay [2], in assay [3], in assay [5] and in assay [6] was “Not Active” throughout.
